# According to publication PMC4627230, “Identification of TAX2 peptide as a new unpredicted anti-cancer agent” (Oncotarget, 2015):
# What was measured:
# [1] = test system: TSP-1; assay: Surface plasmon resonance; type: binding; details: data not shown
# [2] = test system: HUVECs; assay: Boyden chamber / Transwell migration assay; type: cell-based, human
# Procedure: Figure 2 TAX2 peptide impairs endothelial cell migration and inhibits angiogenesis in vitro and ex vivo A. HUVECs were treated with TAX2 (100 μM) or scrambled peptide (Ctrl, 100 μM). CD47 was immunoprecipitated from total protein lysates using anti-CD47 (clone B6H12) and non-specific IgGs were used as a negative control. Immunocomplexes were then submitted to SDS-PAGE and immunoblotted (IB) using specific TSP-1 and CD47 antibodies. Histogram represents the quantification of co-immunoprecipitated TSP-1 relative to immunoprecipitated CD47. Results are expressed as percentage compared to control (n = 3 separate experiments, t test). B. HUVECs (1 × 10^5 per well) were grown at confluence and then cell proliferation was inhibited by incubating with 10 μg/mL mitomycin C for 2 h. Migration assays were performed for 9 h with or without TAX2 peptide (100 μM), as described in Materials and Methods. Photographs (100×) were taken every 3 h. Graph represents the quantification of the wounded area. […] Hoechst-stained migrating cells attached on outside surface of the top chamber were photographed (20× objective) and counted. Results are expressed as percentage of migrated cells as compared to control. […] After 8 h incubation, HUVEC tube-like formation was observed on an inverted microscope (40×) and quantification of network total length was done using ImageJ software. […] Data are expressed as the mean ± SE from at least 3 independent experiments, each performed in triplicate. […] The transcriptional level of TSP-1 was assessed by RT-PCR and normalized to β-actin. […] After 6 days incubation in the presence of 100 μM TAX2 or control peptide (Ctrl), images were taken with an inverted microscope (40×) and microvessel area was quantified using ImageJ software. […]
# Figure 3 Anti-angiogenic properties of TAX2 are mediated by TSP-1 binding to CD36 A. Expression of CD36 in HUVECs was assessed by immunoblotting (left panel) and immunofluorescence staining (right panel, red). […] The presence of TSP-1 in immunocomplexes was quantified by densitometric analysis relative to immunoprecipitated CD36. […]
# [3] = test system: TSP-1 binding to β1 integrin; assay: Co-immunoprecipitation TSP-1 with β1 integrin; type: cell-based, human; details: HUVECs, 100 μM; total protein lysates
# Procedure: Protein lysates prepared in ice-cold lysis buffer or conditioned media were subjected to immunoprecipitation assay using the Pierce Co-IP kit (Thermo Fisher Scientific) according to the manufacturer's protocol. 10 μg of antibody (anti CD47, anti-CD36, anti-FGF2, anti-VEGF, anti-β1 integrin and anti-LRP1 heavy chain) or non-specific IgGs were incubated with the delivered resin and covalently coupled. The antibody-coupled resin was incubated with whole HUVEC protein lysate overnight at 4°C under gentle agitation (no cross-linker was used to stabilize protein complexes before HUVEC lysis). Then the resin was washed and the protein complexes bound to the antibody were eluted. Immunoprecipitated protein complexes were solubilized under denaturing and reducing conditions, heated to 100°C for 5 min and analyzed by immunoblotting as described above. […]
# receptors. HUVECs were treated with TAX2 (100 μM) or scrambled peptide (Ctrl, 100 μM). FGF-2 and VEGF were immunoprecipitated from conditioned media using anti-FGF-2 (clone C-18) and anti-VEGF (clone C-1), respectively. β1 integrin and LRP-1 were immunoprecipitated from total protein lysates using anti-β1 integrin (clone BV7) and anti-LRP-1 heavy chain (clone 8G1), respectively. […] Histogram represents the quantification of relative ligand-bound TSP-1 under TAX2 treatment as compared to control. […]
sequence,measurement,setting,value
"CEVSQLLKGDAC (disulfide) [TAX2, CD47-derived cyclic disulfide dodecapeptide …]",binding to TSP-1 by surface plasmon resonance,[1],confirmed
same,inhibition of endothelial cell migration (Boyden chamber),"[2]; HUVECs, 100 μM, 12 h, EGM-2, mean of 5 in triplicate",50%
same,prevention of endothelial cell migration in presence of CD36 blocking antibody,"[2]; HUVECs, 100 μM, 12 h, anti-CD36 10 μg/mL, n = 3",wholly reversed
same,concentration of optimal inhibition of endothelial cell migration,"[2]; dose-response assay, data not shown, migration format not specified",100 µM
same,TSP-1 binding to β1 integrin,[3],does not affect
